Measurements taken from PMC7753147, “High-throughput determination of protein affinities using unmodified peptide libraries in nanomolar scale” (iScience, 2020).

Key:
gephE = assay: µSPOT peptide microarray binding assay with recombinant gephE
native geph = assay: µSPOT peptide microarray binding assay with native geph from mouse brain lysate
FL-geph = assay: µSPOT peptide microarray binding assay with full-length geph
[1] = µSPOT full positional scan of GlyRβ 15-mer DLRSNDFSIVGSLPR, intensity normalised to wild-type sequence (= 1)
[2] = µSPOT full positional scan of GlyRβ 15-mer DLRSNDFSIVGSLPR, native geph, intensity normalised to wild-type sequence (= 1)
[3] = µSPOT peptide microarray, GlyRβ full positional scan, recombinant gephE, intensity normalised to wild-type sequence DLRSNDFSIVGSLPR (=1)
[4] = µSPOT peptide microarray, GlyRβ full positional scan, native geph from mouse brain lysate, intensity normalised to wild-type sequence DLRSNDFSIVGSLPR (=1)
[5] = µSPOT peptide microarray, GlyRβ full positional scan, intensity normalised to wild-type sequence DLRSNDFSIVGSLPR (=1)
[6] = overlapping GABAAR α3 peptide library on µSPOT array, 20 nM gephE, normalized to most prominent spot, n = 2 array-internal duplicate
[7] = overlapping GABAAR α3 peptide library on µSPOT array, 6% mouse brain lysate, normalized to most prominent spot, n = 2 array-internal duplicate
[8] = overlapping GlyR β peptide library on µSPOT array, 50 nM gephE, anti-gephyrin 3B11/HRP chemiluminescence, normalized to most prominent spot, n = 2 array-internal duplicate
[9] = overlapping GlyR β peptide library on µSPOT array, 3% mouse brain lysate, normalized to most prominent spot, n = 2 array-internal duplicate

Sequence: DLRSNDFSIVGCLPR [GlyRβ_Full_Positional_Scan_237]
- gephE Binding Intensity [norm.] (gephE; [1]): 0.63 norm.
- Native geph Binding Intensity [norm.] (native geph; [2]): 0.48 norm.
- Fl-geph Binding Intensity [norm.] (FL-geph; [1]): 0.83 norm.

Sequence: DLRENDFSIVGSLPR [GlyRβ_Full_Positional_Scan_071]
- gephE Binding Intensity [norm.] (gephE; [3]): 0.93 norm.
- Native geph Binding Intensity [norm.] (native geph; [4]): 1.11 norm.
- Fl-geph Binding Intensity [norm.] (FL-geph; [5]): 0.97 norm.

Sequence: DLRSNDFSIVGSLIR [GlyRβ_Full_Positional_Scan_263]
- gephE Binding Intensity [norm.] (gephE; [1]): 0.65 norm.
- Native geph Binding Intensity [norm.] (native geph; [2]): 0.49 norm.
- Fl-geph Binding Intensity [norm.] (FL-geph; [1]): 0.95 norm.

Sequence: HLRSNDFSIVGSLPR [GlyRβ_Full_Positional_Scan_013]
- gephE Binding Intensity [norm.] (gephE; [3]): 1.1 norm.
- Native geph Binding Intensity [norm.] (native geph; [4]): 0.83 norm.
- Fl-geph Binding Intensity [norm.] (FL-geph; [5]): 1 norm.

Sequence: DLRSNDFSIVGSLPR [GlyRβ_Full_Positional_Scan_235]
- gephE Binding Intensity [norm.] (gephE; [1]): 1 norm.
- Native geph Binding Intensity [norm.] (native geph; [2]): 1 norm.
- Fl-geph Binding Intensity [norm.] (FL-geph; [1]): 1 norm.

Sequence: DLRSNDNSIVGSLPR [GlyRβ_Full_Positional_Scan_139, GlyR β 414-428 variant F420N]
- gephE Binding Intensity [norm.] (gephE; [3]): 0.52 norm.
- Native geph Binding Intensity [norm.] (native geph; [4]): 0.4 norm.
- Fl-geph Binding Intensity [norm.] (FL-geph; [5]): 0.63 norm.

Sequence: DLRSLDFSIVGSLPR [GlyRβ_Full_Positional_Scan_084]
- gephE Binding Intensity [norm.] (gephE; [3]): 0.92 norm.
- Native geph Binding Intensity [norm.] (native geph; [4]): 0.69 norm.
- Fl-geph Binding Intensity [norm.] (FL-geph; [5]): 0.86 norm.

Sequence: DLRSNDFSIVGSLPQ [GlyRβ_Full_Positional_Scan_300]
- gephE Binding Intensity [norm.] (gephE; [1]): 1.02 norm.
- Native geph Binding Intensity [norm.] (native geph; [2]): 1.41 norm.
- Fl-geph Binding Intensity [norm.] (FL-geph; [1]): 1.33 norm.

Sequence: DLRSNEFSIVGSLPR [GlyRβ_Full_Positional_Scan_111]
- gephE Binding Intensity [norm.] (gephE; [3]): 0.96 norm.
- Native geph Binding Intensity [norm.] (native geph; [4]): 0.97 norm.
- Fl-geph Binding Intensity [norm.] (FL-geph; [5]): 0.94 norm.

Sequence: DLRSNDFSIVGSLNR [GlyRβ_Full_Positional_Scan_279]
- gephE Binding Intensity [norm.] (gephE; [1]): 0.71 norm.
- Native geph Binding Intensity [norm.] (native geph; [2]): 0.67 norm.
- Fl-geph Binding Intensity [norm.] (FL-geph; [1]): 0.77 norm.

Sequence: DLRSNDMSIVGSLPR [GlyRβ_Full_Positional_Scan_138, GlyR β 414-428 variant F420M]
- gephE Binding Intensity [norm.] (gephE; [3]): 0.43 norm.
- Native geph Binding Intensity [norm.] (native geph; [4]): 0.32 norm.
- Fl-geph Binding Intensity [norm.] (FL-geph; [5]): 0.51 norm.

Sequence: DLRSNDFSIVGHLPR [GlyRβ_Full_Positional_Scan_233]
- gephE Binding Intensity [norm.] (gephE; [1]): 0.8 norm.
- Native geph Binding Intensity [norm.] (native geph; [2]): 0.9 norm.
- Fl-geph Binding Intensity [norm.] (FL-geph; [1]): 1.01 norm.

Sequence: DLRSNDQSIVGSLPR [GlyRβ_Full_Positional_Scan_140, GlyR β 414-428 variant F420Q]
- gephE Binding Intensity [norm.] (gephE; [3]): 0.48 norm.
- Native geph Binding Intensity [norm.] (native geph; [4]): 0.43 norm.
- Fl-geph Binding Intensity [norm.] (FL-geph; [5]): 0.66 norm.

Sequence: DLRSNDFFIVGSLPR [GlyRβ_Full_Positional_Scan_147, GlyR β 414-428 variant S421F]
- gephE Binding Intensity [norm.] (gephE; [3]): 0.53 norm.
- Native geph Binding Intensity [norm.] (native geph; [4]): 0.18 norm.
- Fl-geph Binding Intensity [norm.] (FL-geph; [5]): 0.64 norm.

Sequence: DLRSNDISIVGSLPR [GlyRβ_Full_Positional_Scan_123, GlyR β 414-428 variant F420I]
- gephE Binding Intensity [norm.] (gephE; [3]): 0.57 norm.
- Native geph Binding Intensity [norm.] (native geph; [4]): 0.46 norm.
- Fl-geph Binding Intensity [norm.] (FL-geph; [5]): 0.66 norm.

Sequence: DLRDNDFSIVGSLPR [GlyRβ_Full_Positional_Scan_070]
- gephE Binding Intensity [norm.] (gephE; [3]): 0.95 norm.
- Native geph Binding Intensity [norm.] (native geph; [4]): 1.34 norm.
- Fl-geph Binding Intensity [norm.] (FL-geph; [5]): 1.09 norm.

Sequence: DLRSNDFSIVHSLPR [GlyRβ_Full_Positional_Scan_213, GlyR β 414-428 variant G424H]
- gephE Binding Intensity [norm.] (gephE; [1]): 0.47 norm.
- Native geph Binding Intensity [norm.] (native geph; [2]): 0.18 norm.
- Fl-geph Binding Intensity [norm.] (FL-geph; [1]): 0.5 norm.

Sequence: DLRSNDFSIVGSLCR [GlyRβ_Full_Positional_Scan_277]
- gephE Binding Intensity [norm.] (gephE; [1]): 0.62 norm.
- Native geph Binding Intensity [norm.] (native geph; [2]): 0.36 norm.
- Fl-geph Binding Intensity [norm.] (FL-geph; [1]): 0.67 norm.

Sequence: DLRSNDFSIYGSLPR [GlyRβ_Full_Positional_Scan_189, GlyR β 414-428 variant V423Y]
- gephE Binding Intensity [norm.] (gephE; [3]): 0.79 norm.
- Native geph Binding Intensity [norm.] (native geph; [4]): 0.34 norm.
- Fl-geph Binding Intensity [norm.] (FL-geph; [5]): 0.84 norm.

Sequence: DLRSNCFSIVGSLPR [GlyRβ_Full_Positional_Scan_117]
- gephE Binding Intensity [norm.] (gephE; [3]): 0.81 norm.
- Native geph Binding Intensity [norm.] (native geph; [4]): 0.64 norm.
- Fl-geph Binding Intensity [norm.] (FL-geph; [5]): 0.8 norm.

Sequence: TKRSWAWEGKKVPEALEMKK
- gephE Binding Intensity [norm.] (gephE; [6]): 0.049 norm.
- Native geph Binding Intensity [norm.] (native geph; [7]): 0.033 norm.

Sequence: HISTLQVGETRCKKVCTSKS [Glycine receptor subunit beta_016, GlyR β residues 394-413]
- gephE Binding Intensity [norm.] (gephE; [8]): 0.042 norm.
- Native geph Binding Intensity [norm.] (native geph; [9]): 0.042 norm.

Sequence: NAAKKNTVNGTGTPVHISTL [Glycine receptor subunit beta_011, GlyR β residues 379-398]
- gephE Binding Intensity [norm.] (gephE; [8]): 0.011 norm.
- Native geph Binding Intensity [norm.] (native geph; [9]): 0.077 norm.

Sequence: GSLPRDFELSNYDCYGKPIE [Glycine receptor subunit beta_026, GlyR β residues 424-443]
- gephE Binding Intensity [norm.] (gephE; [8]): 0.132 norm.
- Native geph Binding Intensity [norm.] (native geph; [9]): 0.134 norm.

Sequence: TVNGTGTPVHISTLQVGETR [Glycine receptor subunit beta_013]
- gephE Binding Intensity [norm.] (gephE; [8]): 0.008 norm.
- Native geph Binding Intensity [norm.] (native geph; [9]): 0.087 norm.

Sequence: IAKAEQADGKGGNAAKKNTV [Glycine receptor subunit beta_007]
- gephE Binding Intensity [norm.] (gephE; [8]): 0.025 norm.
- Native geph Binding Intensity [norm.] (native geph; [9]): 0.066 norm.

Sequence: AEQADGKGGNAAKKNTVNGT [Glycine receptor subunit beta_008, GlyR β residues 370-389]
- gephE Binding Intensity [norm.] (gephE; [8]): 0.023 norm.
- Native geph Binding Intensity [norm.] (native geph; [9]): 0.065 norm.

Sequence: TTFNIVGTTYPINLAKDTEF [GABAAR α3 residues 393-412, µSpot library]
- gephE Binding Intensity [norm.] (gephE; [6]): 0.457 norm.
- Native geph Binding Intensity [norm.] (native geph; [7]): 0.538 norm.

Sequence: GKPIEVNNGLGKPQAKNKKP [Glycine receptor subunit beta_031, GlyR β residues 439-458]
- gephE Binding Intensity [norm.] (gephE; [8]): 0.036 norm.
- Native geph Binding Intensity [norm.] (native geph; [9]): 0.069 norm.

Sequence: VGETRCKKVCTSKSDLRSND [Glycine receptor subunit beta_018, GlyR β residues 400-419]
- gephE Binding Intensity [norm.] (gephE; [8]): 0.011 norm.
- Native geph Binding Intensity [norm.] (native geph; [9]): 0.074 norm.

Sequence: KKVPEALEMKKKTPAAPTKK [GABAAR α3 residues 372-391, µSpot library]
- gephE Binding Intensity [norm.] (gephE; [6]): 0.038 norm.
- Native geph Binding Intensity [norm.] (native geph; [7]): 0.081 norm.

Sequence: SNYDCYGKPIEVNNGLGKPQ [Glycine receptor subunit beta_029, GlyR β residues 433-452]
- gephE Binding Intensity [norm.] (gephE; [8]): 0.216 norm.
- Native geph Binding Intensity [norm.] (native geph; [9]): 0.204 norm.

Sequence: EFSTISKSAAAPSASSTPTA [GABAAR α3 residues 411-430, µSpot library]
- gephE Binding Intensity [norm.] (gephE; [6]): 0.028 norm.
- Native geph Binding Intensity [norm.] (native geph; [7]): 0.127 norm.

Sequence: CTSKSDLRSNDFSIVGSLPR [Glycine receptor subunit beta_021, GlyR β residues 409-428]
- gephE Binding Intensity [norm.] (gephE; [8]): 0.645 norm.
- Native geph Binding Intensity [norm.] (native geph; [9]): 0.379 norm.
